ChEMBL document CHEMBL1201862, “PubChem BioAssay data set” (2004)
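Exposure lasted 48 hours, with cells grown in 96-well plates and compounds tested at five concentrations. GI50 is the concentration that inhibits growth by half.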 Calls of active or inactive are those of the source. Cut-off read from the data, not from the text of the source: active = GI50 up to about 1.1 µM and inactive = higher.

What was measured:
Assay in all cases: NCI tumour cell line growth inhibition, 48 h
HOP-92 = system: HOP-92
OVCAR-5 = system: OVCAR-5
UACC-257 = system: UACC-257
IGROV-1 = system: IGROV-1
SNB-78 = system: SNB-78
SK-MEL-5 = system: SK-MEL-5
M14 = system: M14
Malme-3M = system: Malme-3M
OVCAR-3 = system: OVCAR-3
OVCAR-4 = system: OVCAR-4
RXF 631 = system: RXF 631
NCI-H522 = system: NCI-H522
HL-60 = system: HL-60
HCC 2998 = system: HCC 2998
SF-295 = system: SF-295
A549 = system: A549
COLO 205 = system: COLO 205
ACHN = system: ACHN
SK-OV-3 = system: SK-OV-3
OVCAR-8 = system: OVCAR-8
U-251 = system: U-251
A498 = system: A498
NCI-H226 = system: NCI-H226
NCI-H23 = system: NCI-H23
SK-MEL-28 = system: SK-MEL-28
HCT-116 = system: HCT-116
HT-29 = system: HT-29
SR = system: SR
DMS-273 = system: DMS-273
HOP-62 = system: HOP-62
M19-MEL = system: M19-MEL
SW-620 = system: SW-620
DMS-114 = system: DMS-114
HCT-15 = system: HCT-15
DLD-1 = system: DLD-1
SF-268 = system: SF-268
SNB-75 = system: SNB-75
SN12C = system: SN12C
SK-MEL-2 = system: SK-MEL-2
LXFL 529 = system: LXFL 529
KM12 = system: KM12
EKVX = system: EKVX
SF-539 = system: SF-539
K562 = system: K562
CAKI-1 = system: CAKI-1
CCRF-CEM = system: CCRF-CEM
KM-20L2 = system: KM-20L2
HOP-18 = system: HOP-18
MOLT-4 = system: MOLT-4
TK-10 = system: TK-10
UACC-62 = system: UACC-62
NCI-H460 = system: NCI-H460
786-0 = system: 786-0
UO-31 = system: UO-31
RPMI-8226 = system: RPMI-8226
XF498 = system: XF498
RXF 393 = system: RXF 393
SNB-19 = system: SNB-19
LOX IMVI = system: LOX IMVI

CSCC1CC(c2ccc(Cl)cc2)=NO1 (stereo not given)
GI50 (HOP-92): > 100 µM (inactive)
GI50 (OVCAR-5): > 100 µM (inactive)
GI50 (UACC-257): > 100 µM (inactive)
GI50 (IGROV-1): > 100 µM (inactive)
GI50 (SNB-78): > 100 µM (inactive)
GI50 (SK-MEL-5): > 100 µM (inactive)
GI50 (M14): > 100 µM (inactive)
GI50 (Malme-3M): > 100 µM (inactive)
GI50 (OVCAR-3): > 100 µM (inactive)
GI50 (OVCAR-4): > 100 µM (inactive)
GI50 (RXF 631): > 100 µM (inactive)
GI50 (NCI-H522): > 100 µM (inactive)
GI50 (HL-60): > 100 µM (inactive)
GI50 (HCC 2998): > 100 µM (inactive)
GI50 (SF-295): > 100 µM (inactive)
GI50 (A549): > 100 µM (inactive)
GI50 (COLO 205): > 100 µM (inactive)
GI50 (ACHN): > 100 µM (inactive)
GI50 (SK-OV-3): > 100 µM (inactive)
GI50 (OVCAR-8): > 100 µM (inactive)
GI50 (U-251): > 100 µM (inactive)
GI50 (A498): > 100 µM (inactive)
GI50 (NCI-H226): > 100 µM (inactive)
GI50 (NCI-H23): > 100 µM (inactive)
GI50 (SK-MEL-28): > 100 µM (inactive)
GI50 (HCT-116): > 100 µM (inactive)
GI50 (HT-29): > 100 µM (inactive)
GI50 (SR): > 100 µM (inactive)
GI50 (DMS-273): > 100 µM (inactive)
GI50 (HOP-62): > 100 µM (inactive)
GI50 (M19-MEL): > 100 µM (inactive)
GI50 (SW-620): > 100 µM (inactive)
GI50 (DMS-114): > 100 µM (inactive)
GI50 (HCT-15): > 100 µM
GI50 (DLD-1): > 100 µM (inactive)
GI50 (SF-268): > 100 µM (inactive)
GI50 (SNB-75): > 100 µM (inactive)
GI50 (SN12C): > 100 µM (inactive)
GI50 (SK-MEL-2): > 100 µM (inactive)
GI50 (LXFL 529): > 100 µM (inactive)
GI50 (KM12): > 100 µM (inactive)
GI50 (EKVX): > 100 µM (inactive)
GI50 (SF-539): > 100 µM (inactive)
GI50 (K562): > 100 µM (inactive)
GI50 (CAKI-1): > 100 µM (inactive)
GI50 (CCRF-CEM): > 100 µM (inactive)
GI50 (KM-20L2): > 100 µM (inactive)
GI50 (HOP-18): > 100 µM (inactive)
GI50 (MOLT-4): > 100 µM (inactive)
GI50 (TK-10): > 100 µM (inactive)
GI50 (UACC-62): > 100 µM (inactive)
GI50 (NCI-H460): > 100 µM (inactive)
GI50 (786-0): > 100 µM (inactive)
GI50 (UO-31): > 100 µM (inactive)
GI50 (RPMI-8226): > 100 µM (inactive)

COc1ccccc1/C=C1\N=C(C)OC1=O
GI50 (HOP-92): > 100 µM (inactive)
GI50 (OVCAR-5): > 100 µM (inactive)
GI50 (IGROV-1): > 100 µM (inactive)
GI50 (XF498): > 100 µM (inactive)
GI50 (SNB-78): > 100 µM (inactive)
GI50 (SK-MEL-5): > 100 µM (inactive)
GI50 (M14): > 100 µM (inactive)
GI50 (Malme-3M): > 100 µM (inactive)
GI50 (OVCAR-3): > 100 µM (inactive)
GI50 (OVCAR-4): > 100 µM (inactive)
GI50 (RXF 631): > 100 µM (inactive)
GI50 (NCI-H522): > 100 µM (inactive)
GI50 (HCC 2998): > 100 µM (inactive)
GI50 (SF-295): > 100 µM (inactive)
GI50 (RXF 393): > 100 µM (inactive)
GI50 (COLO 205): > 100 µM (inactive)
GI50 (SK-OV-3): > 100 µM (inactive)
GI50 (OVCAR-8): > 100 µM (inactive)
GI50 (U-251): > 100 µM (inactive)
GI50 (SNB-19): > 100 µM (inactive)
GI50 (NCI-H23): > 100 µM (inactive)
GI50 (SK-MEL-28): > 100 µM (inactive)
GI50 (HT-29): > 100 µM (inactive)
GI50 (SR): > 100 µM (inactive)
GI50 (M19-MEL): > 100 µM (inactive)
GI50 (SW-620): > 100 µM (inactive)
GI50 (HCT-15): > 100 µM
GI50 (DLD-1): > 100 µM (inactive)
GI50 (SN12C): > 100 µM (inactive)
GI50 (SK-MEL-2): > 100 µM (inactive)
GI50 (KM12): > 100 µM (inactive)
GI50 (K562): > 100 µM (inactive)
GI50 (CAKI-1): > 100 µM (inactive)
GI50 (CCRF-CEM): 56 µM (inactive)
GI50 (KM-20L2): > 100 µM (inactive)
GI50 (MOLT-4): > 100 µM (inactive)
GI50 (TK-10): > 100 µM (inactive)
GI50 (UACC-62): > 100 µM (inactive)
GI50 (UO-31): > 100 µM (inactive)

CC(C)(CN1CCCCC1)C(=O)/C=C/c1ccc(Cl)cc1
GI50 (HOP-92): 1.6 µM (inactive)
GI50 (OVCAR-5): 11.4 µM (inactive)
GI50 (UACC-257): 6.4 µM (inactive)
GI50 (IGROV-1): > 10 µM (inactive)
GI50 (SNB-78): 3.24 µM (inactive)
GI50 (SK-MEL-5): 3.08 µM (inactive)
GI50 (M14): 2.51 µM (inactive)
GI50 (Malme-3M): 5.06 µM (inactive)
GI50 (OVCAR-3): 2.77 µM (inactive)
GI50 (OVCAR-4): 4.27 µM (inactive)
GI50 (RXF 631): 9.29 µM (inactive)
GI50 (NCI-H522): 2.73 µM (inactive)
GI50 (HL-60): 2.15 µM (inactive)
GI50 (HCC 2998): 13.2 µM (inactive)
GI50 (SF-295): 3.03 µM (inactive)
GI50 (A549): 3.42 µM (inactive)
GI50 (RXF 393): 3.86 µM (inactive)
GI50 (COLO 205): 4.82 µM (inactive)
GI50 (ACHN): 5.12 µM (inactive)
GI50 (SK-OV-3): 11.2 µM (inactive)
GI50 (OVCAR-8): 2.32 µM (inactive)
GI50 (U-251): 3.51 µM (inactive)
GI50 (A498): 2.73 µM (inactive)
GI50 (NCI-H226): 4.41 µM (inactive)
GI50 (SNB-19): 5.15 µM (inactive)
GI50 (NCI-H23): 2.69 µM (inactive)
GI50 (SK-MEL-28): 8.17 µM (inactive)
GI50 (HCT-116): 3.4 µM (inactive)
GI50 (HT-29): 3.22 µM (inactive)
GI50 (SR): 2.58 µM (inactive)
GI50 (DMS-273): 3.52 µM (inactive)
GI50 (HOP-62): > 10 µM (inactive)
GI50 (M19-MEL): 6.76 µM (inactive)
GI50 (SW-620): 2.57 µM (inactive)
GI50 (DMS-114): 3.65 µM (inactive)
GI50 (HCT-15): 2.65 µM
GI50 (DLD-1): 4.49 µM (inactive)
GI50 (SF-268): 3.34 µM (inactive)
GI50 (SNB-75): 2.44 µM (inactive)
GI50 (SN12C): 2.61 µM (inactive)
GI50 (LXFL 529): 2.54 µM (inactive)
GI50 (KM12): 2.95 µM (inactive)
GI50 (EKVX): 3.3 µM (inactive)
GI50 (SF-539): 2.23 µM (inactive)
GI50 (K562): 2.69 µM (inactive)
GI50 (CCRF-CEM): 2.09 µM (inactive)
GI50 (KM-20L2): 2.36 µM (inactive)
GI50 (HOP-18): 11.1 µM (inactive)
GI50 (MOLT-4): 1.81 µM (inactive)
GI50 (TK-10): 15.3 µM (inactive)
GI50 (UACC-62): 5.35 µM (inactive)
GI50 (NCI-H460): 2.69 µM (inactive)
GI50 (LOX IMVI): 2.84 µM (inactive)
GI50 (786-0): 2.72 µM (inactive)
GI50 (UO-31): 7.5 µM (inactive)
GI50 (RPMI-8226): 2.94 µM (inactive)
